Ki data for 7 molecules are collected here from patent US8283345B2, “Azetidine analogues of nucleosidase and phosphorylase inhibitors” (Industrial Research Limited, priority 2006, dated 2012).

The target in test [1] is E. coli MTAN (Escherichia coli, UniProt P0AF12). Briefly: MTAN inhibition, xanthine oxidase coupled assay. Format: biochemical. As to conditions: MTA Km 0.43 μM. As to the method: (§1) For PNP assays, inosine and inhibitor concentrations were determined spectrophotometrically using an ε260 of 7.1 mM^−1 cm^−1 (pH 6) [Dawson' et al, Data for Biochemical Research, 3rd ed., 1986, Clarendon Press, Oxford, U.K.] and an ε261 of 9.54 mM^−1 cm^−1 (pH 7) [Lim, M.-I.; Ren, Y.-Y.; Otter, B. A.; Klein, R. S., J. Org. Chem. 1983, 48, 780-788], respectively. For MTAN/MTAP assays, methylthioadenosine and inhibitor concentrations were determined using an ε260 of 14.9 mM^−1 cm^−1 (pH 6) [Dawson et al, as above] and an ε275 of 8.5 mM^−1 cm^−1 (pH 7), [J. Org. Chem. 1983, 48, 780-788] respectively. PNP and MTAN/MTAP activities were monitored by xanthine oxidase coupled assays, as previously described [Biochemistry, 2006, 45, 12929-12941; Biochemistry, 1998, 37, 8615-8621]. In all cases, the inhibitor concentration was at least 10-fold greater than the enzyme concentration, as required for simple analysis of slow-onset tight-binding inhibition [Morrison, J. F.; Walsh, C. T. Adv. Enzymol. Relat. Areas Mol. Biol., 1988, 61, 201-301] Michaelis constants used in data fitting were as follows: 40 μM, 34 μM, and 5 μM for inosine with human, bovine, and P. falciparum PNPs, respectively; 5 μM, 0.43 μM, and 23 μM for MTA with human MTAP, E. coli MTAN, and S. pneumoniae MTAN, respectively.

Test [2] addresses S. pneumoniae MTAN (Streptococcus pneumoniae, UniProt Q8DQ16). Briefly: MTAN inhibition, xanthine oxidase coupled assay. Format: biochemical. As to conditions: MTA Km 23 μM. As to the method:
as §1

Test [3] addresses T1, Human MTAP (Homo sapiens, UniProt Q13126).
T1 sequence (Q13126 1-283): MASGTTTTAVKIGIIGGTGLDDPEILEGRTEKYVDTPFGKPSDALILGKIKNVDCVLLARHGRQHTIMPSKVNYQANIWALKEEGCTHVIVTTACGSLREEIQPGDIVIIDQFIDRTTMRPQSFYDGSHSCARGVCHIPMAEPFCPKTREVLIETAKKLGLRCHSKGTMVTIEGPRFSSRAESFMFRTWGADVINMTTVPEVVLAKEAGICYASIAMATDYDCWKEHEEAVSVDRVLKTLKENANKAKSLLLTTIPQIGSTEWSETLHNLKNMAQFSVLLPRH
The test can be described thus: MTAP inhibition, xanthine oxidase coupled assay. To be noted: MTA Km 5 μM. In kind it is biochemical.
Method: (§2) PNP and MTAN/MTAP activities were monitored by xanthine oxidase coupled assays, as previously described [Biochemistry, 2006, 45, 12929-12941; Biochemistry, 1998, 37, 8615-8621]. […] Michaelis constants used in data fitting were as follows: 40 μM, 34 μM, and 5 μM for inosine with human, bovine, and P. falciparum PNPs, respectively; 5 μM, 0.43 μM, and 23 μM for MTA with human MTAP, E. coli MTAN, and S. pneumoniae MTAN, respectively.

In test [4] the target is T2, Human PNP (Homo sapiens, UniProt P00491).
T2 sequence (P00491 1-289): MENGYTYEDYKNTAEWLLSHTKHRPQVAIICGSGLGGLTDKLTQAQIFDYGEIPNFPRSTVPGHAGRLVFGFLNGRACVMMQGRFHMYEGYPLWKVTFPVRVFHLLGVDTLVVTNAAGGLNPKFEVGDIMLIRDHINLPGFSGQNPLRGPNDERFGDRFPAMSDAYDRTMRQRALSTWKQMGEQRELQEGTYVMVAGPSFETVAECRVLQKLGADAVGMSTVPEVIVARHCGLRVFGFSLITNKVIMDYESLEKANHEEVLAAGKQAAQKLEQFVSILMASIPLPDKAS
Briefly: PNP inhibition, xanthine oxidase coupled assay. In kind it is biochemical. To be noted: inosine Km 40 μM.
Method: as §2

Test [5] addresses T3, Bovine PNP (Bos taurus, UniProt P55859).
T3 sequence (P55859 1-289): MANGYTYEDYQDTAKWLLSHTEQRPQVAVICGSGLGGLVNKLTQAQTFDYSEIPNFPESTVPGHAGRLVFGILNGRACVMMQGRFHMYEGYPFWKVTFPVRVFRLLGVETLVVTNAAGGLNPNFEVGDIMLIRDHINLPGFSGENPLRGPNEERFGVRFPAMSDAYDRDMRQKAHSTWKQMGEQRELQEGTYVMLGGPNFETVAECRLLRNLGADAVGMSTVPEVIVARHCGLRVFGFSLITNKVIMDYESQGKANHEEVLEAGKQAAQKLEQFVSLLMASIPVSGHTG
Briefly: PNP inhibition, xanthine oxidase coupled assay. Format: biochemical.
Method: as §2

In test [6] the target is T4, P. falciparum PNP (Plasmodium falciparum, UniProt Q8I3X4).
T4 sequence (Q8I3X4 1-245): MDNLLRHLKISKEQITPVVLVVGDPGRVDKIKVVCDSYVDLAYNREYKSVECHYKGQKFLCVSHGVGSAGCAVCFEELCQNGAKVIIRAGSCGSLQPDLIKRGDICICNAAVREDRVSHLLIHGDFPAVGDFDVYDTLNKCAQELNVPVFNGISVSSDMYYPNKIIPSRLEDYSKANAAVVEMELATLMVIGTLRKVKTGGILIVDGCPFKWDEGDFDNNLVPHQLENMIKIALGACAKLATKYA
Briefly: biochemical.
Method: as §2

Where [7] appears, read: inhibition constant Ki, read-out: Ki Human PNP.
Where [8] appears, read: inhibition constant Ki, inosine Km 34 μM, read-out: Ki Bovine PNP.

pKi: −log10 of the molar value. Counter-ions that a name gives are not always drawn. Like-named read-outs stand apart in the source and are kept apart here.

S. pneumoniae MTAN, sequence (Q8DQ16 entry or part of it): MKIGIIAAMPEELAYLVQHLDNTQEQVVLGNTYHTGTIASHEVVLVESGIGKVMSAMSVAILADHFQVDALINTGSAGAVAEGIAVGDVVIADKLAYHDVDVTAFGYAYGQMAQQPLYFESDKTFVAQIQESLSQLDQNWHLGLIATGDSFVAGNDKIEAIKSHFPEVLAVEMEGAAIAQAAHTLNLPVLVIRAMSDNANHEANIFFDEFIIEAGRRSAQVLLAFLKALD
E. coli MTAN, sequence (P0AF12 whole entry): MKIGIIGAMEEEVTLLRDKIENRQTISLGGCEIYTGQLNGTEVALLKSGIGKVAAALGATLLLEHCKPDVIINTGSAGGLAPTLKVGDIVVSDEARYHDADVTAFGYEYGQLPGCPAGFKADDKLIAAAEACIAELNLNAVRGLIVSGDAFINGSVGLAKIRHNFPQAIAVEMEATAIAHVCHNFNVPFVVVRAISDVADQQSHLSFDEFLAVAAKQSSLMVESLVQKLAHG

As to `CSCC1CN(Cc2c[nH]c3c(N)ncnc23)C1` [Compound 22, 1-[(9-Deazaadenin-9-yl)methyl]-3-methylthiomethylazetidine], the pKi (in general, −log10 of the Ki, conventionally taken in molar units) in test [1] is 9.35; in test [2], 7.08; in test [3] it was 8.70.
For the molecule `O=c1[nH]cnc2c(CN3CCC3CO)c[nH]c12` (racemic) [(±)-43, (±)7-((2-(Hydroxymethyl)azetidin-1-yl)methyl)-5H-pyrrolo[3,2-d]pyrimidin-4-ol], the negative-log Ki (pKi) in test [4] (Ki Human PNP, inhibition constant Ki) was 8.74; in test [4] (Ki* Human PNP, Ki*, slow-onset tight-binding inhibition) it was 9.59; in test [5], 8.74.
Regarding `O=c1[nH]cnc2c(CN3CC(CO)(CO)C3)c[nH]c12` [Compound 18, 1-[(9-Deazahypoxanthin-9-yl)methyl]azetidine-3,3-dimethanol], the pKi was 9.64 in test [4] (setting [7]); 10.19 in test [5]; 9.63 in test [5] (Ki*, slow-onset tight-binding inhibition, inosine Km 34 μM, read-out: Ki* Bovine PNP); less than 5.00 in test [6].
For the molecule `O=c1[nH]cnc2c(CN3[C@H](CO)C[C@@H]3CO)c[nH]c12` [Compound 36, meso-[(9-Deazahypoxanthin-9-yl)methyl]azetidine-2,4-dimethanol hydrochloride], the pKi was 7.89 in test [4] (setting [7]), 7.80 in test [5] (setting [8]) and 5.89 in test [6].
On the same counts, the results for `O=c1[nH]cnc2c(CN3[C@H](CO)C[C@H]3CO)c[nH]c12` (racemic) [(±)-37, (±)2,4-trans-[(9-Deazahypoxanthin-9-yl)methyl]azetidine-2,4-dimethanol hydrochloride] are 6.55, 6.44 and 6.24.
Consider `CSCC1(CO)CN(Cc2c[nH]c3c(N)ncnc23)C1` [Compound 21, 1-[(9-Deazaadenin-9-yl)methyl]-3-methylthiomethylazetidine-3-methanol hydrochloride], for which the pKi was 9.08 in test [1], 6.82 in test [2] and 6.85 in test [3].
Regarding `O=c1[nH]cnc2c(CN3CC(CO)C3)c[nH]c12` [Compound 19, 1-[(9-Deazahypoxanthin-9-yl)methyl]azetindine-3-methanol], the negative-log Ki (pKi) was 8.20 in test [4] (setting [7]), 8.32 in test [5] (setting [8]) and less than 5.00 in test [6] (read-out: Ki P. falciparum PNP).
